Test results taken from patent US20080306056A1, “PYRAZOLE-DERIVATIVES AS FACTOR Xa INHIBITORS” (SANOFI-AVENTIS DEUTSCHLAND GMBH, priority 2002, published 2008).

target: T1, human factor Xa (Homo sapiens, UniProt P00742); experiment: Factor Xa assay (chromogenic, purified enzyme); type: biochemical; conditions: inhibition constant for factor Xa; chromogenic substrate S-2765 140 μM, enzyme 0.5 nM, 25° C., pH 7.8; Ki=IC50/{1+(substrate concentration/Km)}; read-out: Ki(FXa)
T1 construct: 25 μl human factor Xa (Enzyme Research Laboratories, Inc; South Bend, Ind.); purchased Enzyme Research Laboratories, Inc; South Bend, Ind
T1 sequence (P00742 235-488 limits assumed): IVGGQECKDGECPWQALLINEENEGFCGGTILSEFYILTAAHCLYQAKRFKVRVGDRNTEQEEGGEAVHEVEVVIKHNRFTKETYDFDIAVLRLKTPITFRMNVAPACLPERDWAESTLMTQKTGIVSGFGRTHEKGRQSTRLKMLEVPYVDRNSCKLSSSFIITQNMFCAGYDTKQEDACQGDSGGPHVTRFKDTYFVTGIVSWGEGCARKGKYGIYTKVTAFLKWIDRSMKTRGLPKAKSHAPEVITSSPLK
T1 sequence (P00742 41-179 partner limits assumed): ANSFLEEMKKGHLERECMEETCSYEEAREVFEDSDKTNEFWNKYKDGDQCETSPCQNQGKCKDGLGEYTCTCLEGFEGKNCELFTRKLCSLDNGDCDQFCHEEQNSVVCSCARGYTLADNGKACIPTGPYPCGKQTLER
How it was run: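 Human factor Xa (0.5 nM) pre-incubated 10 min with compound in TBS-PEG/DMSO, then S-2765 (140 μM) added; initial hydrolysis rate read at 405 nm, 25°C. IC50 by linear regression of relative rate vs log concentration; Ki = IC50/(1+[S]/Km).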

Row | SMILES | Ki [nM]
1 | CC(C)N1CCC(NC(=O)c2cc(C(=O)NCC(F)(F)F)nn2Cc2cc(-c3ccc(Cl)s3)on2)CC1 [Example 74, 1-[5-(5-Chloro-thiophen-2-yl)-isoxazol-3-ylmethyl]-1H-pyrazole-3,5-dicarboxylic acid 5-[(1-isopropyl-piperidin-4-yl)-amide] 3-[(2,2,2-trifluoro-ethyl)-amide]] | 86
2 | CC(C)N1CCC(NC(=O)c2cc(C(=O)N(C)CC(=O)O)nn2Cc2cc(-c3ccc(Cl)s3)on2)CC1 [Example 33, {[1-[5-(5-Chloro-thiophen-2-yl)-isoxazol-3-ylmethyl]-5-(1-isopropyl-piperidin-4-ylcarbamoyl)-1H-pyrazole-3-carbonyl]-methyl-amino}-acetic acid] | 82
3 | CC(C)N1CCC(NC(=O)c2cc(C(=O)NCCCN3CCCC3=O)nn2Cc2cc(-c3ccc(Cl)s3)on2)CC1 [Example 76, 1-[5-(5-Chloro-thiophen-2-yl)-isoxazol-3-ylmethyl]-1H-pyrazole-3,5-dicarboxylic acid 5-[(1-isopropyl-piperidin-4-yl)-amide] 3-{[3-(2-oxo-pyrrolidin-1-yl)-propyl]-amide}] | 83
4 | CC(C)N1CCC(NC(=O)c2cc(C(=O)N3CCC[C@H]3C(=O)O)nn2Cc2cc(-c3ccc(Cl)s3)on2)CC1 [Example 65, 1-[1-[5-(5-Chloro-thiophen-2-yl)-isoxazol-3-ylmethyl]-5-(1-isopropyl-piperidin-4-ylcarbamoyl)-1H-pyrazole-3-carbonyl]-2S-pyrrolidine-2-carboxylic acid] | 142
5 | CC(C)N1CCC(NC(=O)c2cc(C(=O)N3CCC(F)(F)CC3)nn2Cc2cc(-c3ccc(Cl)s3)on2)CC1 [Example 71, 2-[5-(5-Chloro-thiophen-2-yl)-isoxazol-3-ylmethyl]-5-(4,4-difluoro-piperidine-1-carbonyl)-2H-pyrazole-3-carboxylic acid (1-isopropyl-piperidin-4-yl)-amide] | 184
6 | CC(C)N1CCC(NC(=O)c2cc(C(=O)N3CCOC3=O)nn2Cc2cc(-c3ccc(Cl)s3)on2)CC1 [Example 72, 2-[5-(5-Chloro-thiophen-2-yl)-isoxazol-3-ylmethyl]-5-(2-oxo-oxazolidine-3-carbonyl)-2H-pyrazole-3-carboxylic acid (1-isopropyl-piperidin-4-yl)-amide] | 92
7 | CC(C)N1CCC(NC(=O)c2cc(C(=O)NC3CCS(=O)(=O)C3)nn2Cc2cc(-c3ccc(Cl)s3)on2)CC1 (stereo not drawn) [Example 75, 1-[5-(5-Chloro-thiophen-2-yl)-isoxazol-3-ylmethyl]-1H-pyrazole-3,5-dicarboxylic acid 3-[(1,1-dioxo-tetrahydro-1-thiophen-3-yl)-amide] 5-[(1-isopropyl-piperidin-4-yl)-amide]] | 76
8 | CC(C)N1CCC(NC(=O)c2cc(C(=O)NC#N)nn2Cc2cc(-c3ccc(Cl)s3)on2)CC1 [Example 49, 2-[5-(5-Chloro-thiophen-2-yl)-isoxazol-3-ylmethyl]-5-(cyanamide-1-carbonyl)-2H-pyrazole-3-carboxylic acid (1-isopropyl-piperidin-4-yl)-amide] | 40
9 | CC(C)N1CCC(NC(=O)c2c(C#N)c(-c3cccs3)nn2Cc2cc(-c3ccc(Cl)s3)on2)CC1 [Example 12, 2-[5-(5-Chloro-thiophen-2-yl)-isoxazol-3-ylmethyl]-4-cyano-5-thiophen-2-yl-2H-pyrazole-3-carboxylic acid (1-isopropyl-piperidin-4-yl)-amide] | 14
10 | COCCN(CCOC)C(=O)c1cc(C(=O)NC2CCN(C(C)C)CC2)n(Cc2cc(-c3ccc(Cl)s3)on2)n1 [Example 31, 1-[5-(5-Chloro-thiophen-2-yl)-isoxazol-3-ylmethyl]-1H-pyrazole-3,5-dicarboxylic acid 3-[bis-(2-methoxy-ethyl)-amide] 5-[(1-isopropyl-piperidin-4-yl)-amide]] | 180
11 | CC(C)N1CCC(NC(=O)c2cc(C(=O)N3CCCOCC3)nn2Cc2cc(-c3ccc(Cl)s3)on2)CC1 [Example 42, 2-[5-(5-Chloro-thiophen-2-yl)-isoxazol-3-ylmethyl]-5-([1,4]oxazepane-4-carbonyl)-2H-pyrazole-3-carboxylic acid (1-isopropyl-piperidin-4-yl)-amide] | 84
12 | CC(C)N1CCC(NC(=O)c2c(C#N)c(-c3cccs3)nn2Cc2ccc(Cl)cc2)CC1 [Example 19, 2-(4-Chloro-benzyl)-4-cyano-5-thiophen-2-yl-2H-pyrazole-3-carboxylic acid (1-isopropyl-piperidin-4-yl)-amide] | 274
13 | CC(C)N1CCC(NC(=O)c2cc(C(=O)N3CCCOCC3)nn2CC(=O)Nc2ccc(Cl)cn2)CC1 [Example 108, 2-[(5-Chloro-pyridin-2-ylcarbamoyl)-methyl]-5-([1,4]oxazepane-4-carbonyl)-2H-pyrazole-3-carboxylic acid (1-isopropyl-piperidin-4-yl)-amide] | 39
14 | CC(C)N1CCC(NC(=O)c2nn(Cc3cc(-c4ccc(Cl)s4)on3)c(-c3cccs3)c2C#N)CC1 [Example 13, 1-[5-(5-Chloro-thiophen-2-yl)-isoxazol-3-ylmethyl]-4-cyano-5-thiophen-2-yl-1H-pyrazole-3-carboxylic acid (1-isopropyl-piperidin-4-yl)-amide] | 39

Continued by falling Ki, values first:

Row | Ki [nM] | SMILES
15 | 228 | CCOC(=O)C(NC(=O)c1cc(C(=O)NC2CCN(C(C)C)CC2)n(Cc2cc(-c3ccc(Cl)s3)on2)n1)C(C)C (stereo not drawn) [Example 97, 2-{[1-[5-(5-Chloro-thiophen-2-yl)-isoxazol-3-ylmethyl]-5-(1-isopropyl-piperidin-4-ylcarbamoyl)-1H-pyrazole-3-carbonyl]-amino}-3-methyl-butyric acid ethyl ester]
16 | 184 | CC(C)N1CCC(NC(=O)c2cc(C(=O)NS(C)(=O)=O)nn2Cc2cc(-c3ccc(Cl)s3)on2)CC1 [Example 82, 2-[5-(5-Chloro-thiophen-2-yl)-isoxazol-3-ylmethyl]-5-methanesulfonylaminocarbonyl-2H-pyrazole-3-carboxylic acid (1-isopropyl-piperidin-4-yl)-amide]
17 | 163 | CC(C)N1CCC(NC(=O)c2cc(C(=O)N3CCC(O)CC3)nn2Cc2cc(-c3ccc(Cl)s3)on2)CC1 [Example 35, 2-[5-(5-Chloro-thiophen-2-yl)-isoxazol-3-ylmethyl]-5-(4-hydroxy-piperidine-1-carbonyl)-2H-pyrazole-3-carboxylic acid (1-isopropyl-piperidin-4-yl)-amide]
18 | 155 | CC(C)N1CCC(CNC(=O)c2cc(-c3cccs3)nn2Cc2cc(-c3ccc(Cl)s3)on2)CC1 [Example 17, 2-[5-(5-Chloro-thiophen-2-yl)-isoxazol-3-ylmethyl]-5-thiophen-2-yl-2H-pyrazole-3-carboxylic acid (1-isopropyl-piperidin-4-ylmethyl)-amide]
19 | 108 | CC(C)N1CCC(NC(=O)c2cc(C(=O)N3CCSCC3)nn2Cc2cc(-c3ccc(Cl)s3)on2)CC1 [Example 34, 2-[5-(5-Chloro-thiophen-2-yl)-isoxazol-3-ylmethyl]-5-(thiomorpholine-4-carbonyl)-2H-pyrazole-3-carboxylic acid (1-isopropyl-piperidin-4-yl)-amide]
20 | 101 | CCOC(=O)CNC(=O)c1cc(C(=O)NC2CCN(C(C)C)CC2)n(Cc2cc(-c3ccc(Cl)s3)on2)n1 [Example 61, {[1-[5-(5-Chloro-thiophen-2-yl)-isoxazol-3-ylmethyl]-5-(1-isopropyl-piperidin-4-ylcarbamoyl)-1H-pyrazole-3-carbonyl]-amino}-acetic acid ethyl ester]
21 | 82 | CC(C)N1CCC(NC(=O)c2cc(C(=O)NCC(=O)O)nn2Cc2cc(-c3ccc(Cl)s3)on2)CC1 [Example 28, {[1-[5-(5-Chloro-thiophen-2-yl)-isoxazol-3-ylmethyl]-5-(1-isopropyl-piperidin-4-ylcarbamoyl)-1H-pyrazole-3-carbonyl]-amino}-acetic acid]
22 | 73 | COC(=O)c1cc(C(=O)NC2CCN(C(C)C)CC2)n(Cc2cc(-c3ccc(Cl)s3)on2)n1 [Example 20, 1-[5-(5-Chloro-thiophen-2-yl)-isoxazol-3-ylmethyl]-5-(1-isopropyl-piperidin-4-ylcarbamoyl)-1H-pyrazole-3-carboxylic acid methyl ester]
23 | 30 | CC(C)N1CCC(NC(=O)c2cc(-c3cccs3)nn2Cc2cc(-c3ccc(Cl)s3)on2)CC1 [Example 1, 2-[5-(5-Chloro-thiophen-2-yl)-isoxazol-3-ylmethyl]-5-thiophen-2-yl-2H-pyrazole-3-carboxylic acid (1-isopropyl-piperidin-4-yl)-amide]
24 | 21 | CC(C)N1CCC(NC(=O)c2cc(OCC(F)(F)F)nn2CC(=O)Nc2ccc(Cl)cn2)CC1 [Example 105, 2-[(5-Chloro-pyridin-2-ylcarbamoyl)-methyl]-5-(2,2,2-trifluoro-ethoxy)-2H-pyrazole-3-carboxylic acid (1-isopropyl-piperidin-4-yl)-amide]
